Laboratory results as given in US4684664A, “Derivatives of β-(4-isocyano-1,2,3,4-diepoxycyclopentyl) acrylic acid” (Kureha Kagaku Kogyo Kabushiki Kaisha, priority 1984, dated 1987).
Values after ≈ are worked out from the molar mass of the structure shown.

Experiments:
Format in all cases: cell-based
[1] = system: Staphylococcus aureus FDA 209PJc-1; assay: Antibacterial activity, agar-dilution MIC, organism No. 1; details: Staphylococcus aureus, FDA209PJC1; Organism No. 1, bouillon-agar; read-out: Minimum Inhibitory Concentration
How it was run: (§1)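 MICs were determined by agar dilution on bouillon-agar medium. The value is the minimum concentration of specimen inhibiting growth, expressed as μg/ml of culture medium.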

[2] = system: Staphylococcus aureus Terajima; assay: Antibacterial activity, agar-dilution MIC, organism No. 2; details: Staphylococcus aureus; Organism No. 2, bouillon-agar; read-out: Minimum Inhibitory Concentration
How it was run: as §1

[3] = system: Staphylococcus aureus MS 353; assay: Antibacterial activity, agar-dilution MIC, organism No. 3; details: Staphylococcus aureus, MS353; Organism No. 3, bouillon-agar; read-out: Minimum Inhibitory Concentration
How it was run: as §1

[4] = system: Streptococcus pyogenes Cook; assay: Antibacterial activity, agar-dilution MIC, organism No. 4; details: Streptococcus pyogenes; Organism No. 4, bouillon-agar; read-out: Minimum Inhibitory Concentration
How it was run: as §1

[5] = system: Escherichia coli NIHJ-JC-2; assay: Antibacterial activity, agar-dilution MIC, organism No. 5; details: Escherichia coli, NIHJJC2; Organism No. 5, bouillon-agar; read-out: Minimum Inhibitory Concentration
How it was run: as §1

[6] = system: Escherichia coli K12 C600 IAM 1264; assay: Antibacterial activity, agar-dilution MIC, organism No. 6; details: Escherichia coli, IAM1264; Organism No. 6, bouillon-agar; read-out: Minimum Inhibitory Concentration
How it was run: as §1

[7] = system: Klebsiella pneumoniae PCI-602; assay: Antibacterial activity, agar-dilution MIC, organism No. 7; details: Klebsiella pneumoniae, PCI602; Organism No. 7, bouillon-agar; read-out: Minimum Inhibitory Concentration
How it was run: as §1

[8] = system: Salmonella typhimurium IID 971; assay: Antibacterial activity, agar-dilution MIC, organism No. 8; details: Salmonella enterica; Organism No. 8, bouillon-agar; read-out: Minimum Inhibitory Concentration
How it was run: as §1

[9] = system: Salmonella typhi 901; assay: Antibacterial activity, agar-dilution MIC, organism No. 9; details: Salmonella enterica, TYPHI, read-out: Minimum Inhibitory Concentration
How it was run: as §1

[10] = system: Salmonella paratyphi-A 1015; assay: Antibacterial activity, agar-dilution MIC, organism No. 10; details: Salmonella enterica, PARATYPHI, read-out: Minimum Inhibitory Concentration
How it was run: as §1

[11] = system: Salmonella shottmuelleri 8006; assay: Antibacterial activity, agar-dilution MIC, organism No. 11; details: Salmonella, 8006; Organism No. 11, bouillon-agar; read-out: Minimum Inhibitory Concentration
How it was run: as §1

[12] = system: Salmonella enteritidis G 14; assay: Antibacterial activity, agar-dilution MIC, organism No. 12; details: Salmonella enterica, ENTERITIDIS; Organism No. 12, bouillon-agar; read-out: Minimum Inhibitory Concentration
How it was run: as §1

[13] = system: Serratia marcescens IAM 1184; assay: Antibacterial activity, agar-dilution MIC, organism No. 13; details: Serratia marcescens, IAM1184; Organism No. 13, bouillon-agar; read-out: Minimum Inhibitory Concentration
How it was run: as §1

[14] = system: Bacillus subtilis ATCC 6633; assay: Antibacterial activity, agar-dilution MIC, organism No. 14; details: Bacillus subtilis, ATCC6633; Organism No. 14, bouillon-agar; read-out: Minimum Inhibitory Concentration
How it was run: as §1

[15] = system: Pseudomonas aeruginosa IFO 3445; assay: Antibacterial activity, agar-dilution MIC, organism No. 15; details: Pseudomonas aeruginosa, IFO3445; Organism No. 15, bouillon-agar; read-out: Minimum Inhibitory Concentration
How it was run: as §1

[16] = system: Pseudomonas aeruginosa NCTC 10490; assay: Antibacterial activity, agar-dilution MIC, organism No. 16; details: Pseudomonas aeruginosa, NCTC10490; Organism No. 16, bouillon-agar; read-out: Minimum Inhibitory Concentration
How it was run: as §1

[17] = system: Pseudomonas aeruginosa PAO 1; assay: Antibacterial activity, agar-dilution MIC, organism No. 17; details: Pseudomonas aeruginosa, PAO1; Organism No. 17, bouillon-agar; read-out: Minimum Inhibitory Concentration
How it was run: as §1

[18] = system: Proteus morganii IFO 3848; assay: Antibacterial activity, agar-dilution MIC, organism No. 18; details: Morganella morganii, IFO3848; Organism No. 18, bouillon-agar; read-out: Minimum Inhibitory Concentration
How it was run: as §1

[19] = system: Proteus mirabilis IFO 3849; assay: Antibacterial activity, agar-dilution MIC, organism No. 19; details: Proteus mirabilis, IFO3849; Organism No. 19, bouillon-agar; read-out: Minimum Inhibitory Concentration
How it was run: as §1

[20] = system: Proteus vulgaris OX-19; assay: Antibacterial activity, agar-dilution MIC, organism No. 20; details: Proteus vulgaris, OX19; Organism No. 20, bouillon-agar; read-out: Minimum Inhibitory Concentration
How it was run: as §1

[21] = system: Proteus vulgaris HX-19; assay: Antibacterial activity, agar-dilution MIC, organism No. 21; details: Proteus vulgaris, HX19; Organism No. 21, bouillon-agar; read-out: Minimum Inhibitory Concentration
How it was run: as §1

[22] = system: Proteus rettgeri IFO 3850; assay: Antibacterial activity, agar-dilution MIC, organism No. 22; details: Providencia rettgeri, IFO3850; Organism No. 22, bouillon-agar; read-out: Minimum Inhibitory Concentration
How it was run: as §1

[23] = system: Enterobacter aerogenes ATCC 13048; assay: Antibacterial activity, agar-dilution MIC, organism No. 23; details: Klebsiella aerogenes, ATCC13048; Organism No. 23, bouillon-agar; read-out: Minimum Inhibitory Concentration
How it was run: as §1

[24] = system: Enterobacter cloacae 963; assay: Antibacterial activity, agar-dilution MIC, organism No. 24; details: Enterobacter cloacae, 963; Organism No. 24, bouillon-agar; read-out: Minimum Inhibitory Concentration
How it was run: as §1

[25] = system: Micrococcus luteus ATCC 9341; assay: Antibacterial activity, agar-dilution MIC, organism No. 25; details: Micrococcus luteus, ATCC9341; Organism No. 25, bouillon-agar; read-out: Minimum Inhibitory Concentration
How it was run: as §1

[26] = system: Streptococcus pyogenes IFO 3340; assay: Antibacterial activity, agar-dilution MIC, organism No. 26; details: Streptococcus pyogenes, IFO3340; Organism No. 26, bouillon-agar; read-out: Minimum Inhibitory Concentration
How it was run: as §1

[27] = system: Streptococcus faecium IFO 3826; assay: Antibacterial activity, agar-dilution MIC, organism No. 27; details: Enterococcus faecium, IFO3826; Organism No. 27, bouillon-agar; read-out: Minimum Inhibitory Concentration
How it was run: as §1

[28] = system: Mycoplasma pneumoniae IID817; assay: Antimycoplasmal activity, MIC by phenol red colour change, organism No. 28; details: Mycoplasma, IID817; Organism No. 28, PPLO broth + 1% glucose, 37° C.; read-out: Minimum Inhibitory Concentration (MIC)
Protocol: Mycoplasma pneumoniae IID817 was used as the test microorganism in a culture medium prepared by adding 1% of glucose to "PPLO broth (manufactured by Difco Co.) liquid culture medium" at 37° C. with phenol red as an indicator, thereby culturing the test microorganism.

[29] = system: Candida albicans IAM 4905; assay: Antifungal activity, agar-dilution MIC, organism No. 29; details: Candida albicans, IAM4905; Organism No. 29, bouillon-agar; read-out: Minimum Inhibitory Concentration
How it was run: as §1

[30] = system: Aspergillus niger IFO 6342; assay: Antifungal activity, agar-dilution MIC, organism No. 30; details: Aspergillus niger, IFO6342; Organism No. 30, bouillon-agar; read-out: Minimum Inhibitory Concentration
How it was run: as §1

[C-]#[N+]C12CC3(/C=C/C(=O)Nc4ccc5c(c4)CCC5)OC3C1O2 (stereo not drawn) [compound 75]
MIC [1]: 0.39 µg/mL (≈ 1.26 µM)
MIC [2]: 1.56 µg/mL (≈ 5.06 µM)
MIC [3]: 0.78 µg/mL (≈ 2.53 µM)
MIC [4]: > 200 µg/mL
MIC [5]: > 200 µg/mL
MIC [6]: > 200 µg/mL
MIC [7]: 0.78 µg/mL (≈ 2.53 µM)
MIC [8]: > 200 µg/mL
MIC [9]: > 200 µg/mL
MIC [10]: 0.78 µg/mL (≈ 2.53 µM)
MIC [11]: 1.56 µg/mL (≈ 5.06 µM)
MIC [12]: > 200 µg/mL
MIC [13]: > 200 µg/mL
MIC [14]: 1.56 µg/mL (≈ 5.06 µM)
MIC [15]: > 200 µg/mL
MIC [16]: > 200 µg/mL
MIC [17]: > 200 µg/mL
MIC [18]: 3.13 µg/mL (≈ 10.2 µM)
MIC [19]: > 200 µg/mL
MIC [20]: 1.56 µg/mL (≈ 5.06 µM)
MIC [21]: 0.78 µg/mL (≈ 2.53 µM)
MIC [22]: > 200 µg/mL
MIC [23]: > 200 µg/mL
MIC [24]: 200 µg/mL (≈ 649 µM)
MIC [25]: 200 µg/mL (≈ 649 µM)
MIC [26]: 0.78 µg/mL (≈ 2.53 µM)
MIC [27]: 1.56 µg/mL (≈ 5.06 µM)
MIC [28]: < 0.2 µg/mL
MIC [29]: 200 µg/mL (≈ 649 µM)
MIC [30]: 200 µg/mL (≈ 649 µM)

[C-]#[N+]C12CC3(/C=C/C(=O)O)OC3C1O2 (stereo not drawn) [α substituted acrylic acid, β-(4-isocyano-1,2-3,4-diepoxycyclopentyl)acrylic acid, reference compound]
MIC [1]: 25 µg/mL (≈ 129 µM)
MIC [2]: 50 µg/mL (≈ 259 µM)
MIC [3]: 25 µg/mL (≈ 129 µM)
MIC [4]: 25 µg/mL (≈ 129 µM)
MIC [5]: 12.5 µg/mL (≈ 64.7 µM)
MIC [6]: 12.5 µg/mL (≈ 64.7 µM)
MIC [7]: 50 µg/mL (≈ 259 µM)
MIC [8]: 12.5 µg/mL (≈ 64.7 µM)
MIC [9]: 6.25 µg/mL (≈ 32.4 µM)
MIC [10]: 12.5 µg/mL (≈ 64.7 µM)
MIC [11]: 12.5 µg/mL (≈ 64.7 µM)
MIC [12]: 3.13 µg/mL (≈ 16.2 µM)
MIC [13]: 50 µg/mL (≈ 259 µM)
MIC [14]: 25 µg/mL (≈ 129 µM)
MIC [15]: 200 µg/mL (≈ 1040 µM)
MIC [16]: 200 µg/mL (≈ 1040 µM)
MIC [17]: 200 µg/mL (≈ 1040 µM)
MIC [18]: 12.5 µg/mL (≈ 64.7 µM)
MIC [19]: 12.5 µg/mL (≈ 64.7 µM)
MIC [20]: 6.25 µg/mL (≈ 32.4 µM)
MIC [21]: 6.25 µg/mL (≈ 32.4 µM)
MIC [22]: 50 µg/mL (≈ 259 µM)
MIC [23]: 200 µg/mL (≈ 1040 µM)
MIC [24]: 100 µg/mL (≈ 518 µM)
MIC [25]: 12.5 µg/mL (≈ 64.7 µM)
MIC [26]: 6.25 µg/mL (≈ 32.4 µM)
MIC [27]: 50 µg/mL (≈ 259 µM)
MIC [28]: < 0.2 µg/mL
MIC [29]: 12.5 µg/mL (≈ 64.7 µM)
MIC [30]: 25 µg/mL (≈ 129 µM)
